# US20160287589A1, “SUBSTITUTED-IMIDAZOPYRIDAZINES” (BAYER PHARMA AKTIENGESELLSCHAFT, priority 2013, published 2016)
# What was measured:
# MKNK1 [1] = molecular target: T1, MKNK1 (Homo sapiens, UniProt Q9BUB5, T385D); experiment: MKNK1 kinase assay (MKNK1 TR-FRET assay); type: biochemical; settings: 10 μM ATP, 15 min preincubation
# T1 construct: GST (N); purchased Carna Biosciences 02-145; host or cells: insect cells (baculovirus expression system)
# MKNK1 [2] = molecular target: T1, MKNK1; experiment: MKNK1 kinase high ATP assay (TR-FRET-based); type: biochemical; settings: 2 mM ATP, 15 min preincubation
# Method in brief: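 TR-FRET read-out (anti-phospho-S6 Ser236 antibody, Eu/XL665) of biotin-peptide phosphorylation (0.06 μM) at high ATP (2 mM final). Enzyme was GST-MKNK1 full length, T344D, pre-bound to compound for 15 min before a 30 min reaction at 22 °C, pH 7.5. Inhibition scaled between no-inhibitor (0%) and no-enzyme (100%) wells.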
# T1 sequence (Q9BUB5 1-424 isoform Q9BUB5-2 T344D): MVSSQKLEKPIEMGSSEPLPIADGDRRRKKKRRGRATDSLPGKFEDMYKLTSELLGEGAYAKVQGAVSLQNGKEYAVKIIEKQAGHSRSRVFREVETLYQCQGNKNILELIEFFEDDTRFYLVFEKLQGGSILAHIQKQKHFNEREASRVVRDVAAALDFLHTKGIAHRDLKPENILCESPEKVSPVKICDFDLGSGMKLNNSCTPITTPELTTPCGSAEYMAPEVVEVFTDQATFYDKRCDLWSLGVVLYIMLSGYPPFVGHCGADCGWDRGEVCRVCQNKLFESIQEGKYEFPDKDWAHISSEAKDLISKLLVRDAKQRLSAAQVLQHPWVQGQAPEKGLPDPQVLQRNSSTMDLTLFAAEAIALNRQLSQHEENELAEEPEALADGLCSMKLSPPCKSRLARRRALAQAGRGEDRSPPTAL
IC50 (MKNK1 [1]; Table 1a) [nM],IC50 (MKNK1 [2]; Table 2a) [nM],IC50 (MKNK1 [1]; Table 1b) [nM],IC50 (MKNK1 [2]; Table 2b) [nM],SMILES
6,17.7,,,"O=C(Cc1ccccc1)NCCOc1ccc2ncc(-c3cc4ccccc4o3)n2n1 [Example I-75, N-(2-{[3-(1-Benzofuran-2-yl)imidazo[1,2-b]-pyridazin-6-yl]oxy}ethyl)-2-phenylacetamide]"
7.3,21.1,,,"O=C(CC1CC1)NCCOc1ccc2ncc(-c3cc4ccccc4o3)n2n1 [Example I-76, N-(2-{[3-(1-Benzofuran-2-yl)imidazo[1,2-b]-pyridazin-6-yl]oxy}ethyl)-2-cyclopropylacetamide]"
,,15,27,"O=C1CC[C@H](COc2ccc3ncc(-c4cc5c(N6CCOCC6)cccc5o4)n3n2)N1 [II-5, (5R)-5-[({3-[4-(Morpholin-4-yl)-1-benzofuran-2-yl]imidazo[1,2-b]pyridazin-6-yl}oxy)methyl]pyrrolidin-2-one]"
,,0.5,0.8,"CS(=O)(=O)CCCOc1ccc2ncc(-c3cc4c(N5CCNCC5)cccc4o3)n2n1 [II-20, 6-[3-(Methylsulfonyl)propoxy]-3-[4-(piperazin-1-yl)-1-benzofuran-2-yl]imidazo-[1,2-b]pyridazine]"
